The record followed here is patent US20250215010A1, “DIAZABICYCLOOCTANE DERIVATIVES USEFUL AS MATRIX METALLOPROTEINASE INHIBITORS” (VASA THERAPEUTICS SPOLKA Z OGRANICZONA ODPOWIEDZIALNOSCIA, priority 2022, published 2025).

Holding throughout (assay type): biochemical
In assay [1] the target is T1, ADAM10 (Homo sapiens, UniProt O14672).
T1 construct: purchased AnaSpec, Inc. AS-72226
T1 sequence (O14672 214-748): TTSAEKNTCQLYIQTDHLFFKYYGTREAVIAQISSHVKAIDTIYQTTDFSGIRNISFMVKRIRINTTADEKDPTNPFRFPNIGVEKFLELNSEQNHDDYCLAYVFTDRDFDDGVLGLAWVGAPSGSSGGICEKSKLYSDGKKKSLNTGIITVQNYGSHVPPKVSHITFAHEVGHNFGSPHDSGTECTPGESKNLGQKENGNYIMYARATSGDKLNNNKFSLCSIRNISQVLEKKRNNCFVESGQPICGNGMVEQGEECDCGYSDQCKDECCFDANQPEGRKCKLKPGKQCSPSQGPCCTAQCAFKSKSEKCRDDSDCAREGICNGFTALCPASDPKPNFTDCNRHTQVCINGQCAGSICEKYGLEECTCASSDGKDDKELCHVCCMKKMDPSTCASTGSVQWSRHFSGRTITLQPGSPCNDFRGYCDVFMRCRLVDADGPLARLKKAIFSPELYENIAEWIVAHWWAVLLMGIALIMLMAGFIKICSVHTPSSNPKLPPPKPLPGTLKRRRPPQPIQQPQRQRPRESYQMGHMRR
The experiment in a line: SensoLyte 520 ADAM10 fluorometric activity assay (AnaSpec AS-72226). Here is the method:
The inhibitory activities of the compounds of the invention were assessed in 96-well microplate format using MMP1, MMP2, MMP9 and MMP13 colorimetric assay kits and TACE fluorometric assay kit from Enzo Life Sciences, Inc. The inhibitory effect of the compounds of the invention on ADAM10 activity were evaluated in 96-well microplate format using fluorometric assay from AnaSpec, Inc.
SensoLyte® 520 ADAM10 Activity Assay Kit (catalog #AS-72226) is a complete assay system designed to screen ADAM10 inhibitors using FRET-based peptide substrate containing the 5-FAM/QXL™ 520 fluorophore/quencher pair. The fluorescence of 5-FAM is quenched by QXL™ 520 and recovered upon cleavage of the peptide by active ADAM10.
The inhibitory activity of the compounds of the invention against ADAM10 was tested according to the manufacturer's assay protocol and the fluorescence was monitored at excitation/emission wavelengths=495 nm/520 nm using Tecan Infinite® 200 Pro F Nano^+ microplate reader.
The normalized values were analyzed using GraphPadPrism 9 for Windows (GraphPad Software, San Diego, CA, USA) software by plotting inhibition curves and determining the IC50 values (in nM).

In assay [2] the target is MMP9 (Homo sapiens, UniProt P14780). In words: MMP-9 colorimetric inhibition assay (Enzo kit BML-AK410). A digest of the protocol: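 Colorimetric thioester-substrate assay: hydrolysis of Ac-PLG-[2-mercapto-4-methylpentanoyl]-LG-OC2H5 frees a thiol that reacts with DTNB, read at 415 nm. Run per kit protocol. IC50 (nM) taken from inhibition curves of normalized values.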
Chain of MMP9 (P14780 94-707): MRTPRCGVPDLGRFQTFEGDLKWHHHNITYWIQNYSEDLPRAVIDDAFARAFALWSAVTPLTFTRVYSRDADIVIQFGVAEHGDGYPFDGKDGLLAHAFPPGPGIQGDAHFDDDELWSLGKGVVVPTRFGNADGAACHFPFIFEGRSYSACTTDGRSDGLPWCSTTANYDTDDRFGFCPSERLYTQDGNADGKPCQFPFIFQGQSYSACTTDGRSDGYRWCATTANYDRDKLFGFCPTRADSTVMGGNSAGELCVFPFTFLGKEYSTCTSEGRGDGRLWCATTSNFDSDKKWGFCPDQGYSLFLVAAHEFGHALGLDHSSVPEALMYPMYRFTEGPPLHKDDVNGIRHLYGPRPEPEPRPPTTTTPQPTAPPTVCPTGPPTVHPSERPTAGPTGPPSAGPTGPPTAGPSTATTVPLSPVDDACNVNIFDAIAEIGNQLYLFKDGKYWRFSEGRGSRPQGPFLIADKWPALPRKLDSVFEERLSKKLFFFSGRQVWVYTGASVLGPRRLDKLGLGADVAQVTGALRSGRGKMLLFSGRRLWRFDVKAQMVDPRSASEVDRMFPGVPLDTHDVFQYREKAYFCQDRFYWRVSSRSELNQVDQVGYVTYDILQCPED

Assay [3] has as its target T2, MMP2 (Homo sapiens, UniProt P08253).
T2 sequence (P08253 110-660): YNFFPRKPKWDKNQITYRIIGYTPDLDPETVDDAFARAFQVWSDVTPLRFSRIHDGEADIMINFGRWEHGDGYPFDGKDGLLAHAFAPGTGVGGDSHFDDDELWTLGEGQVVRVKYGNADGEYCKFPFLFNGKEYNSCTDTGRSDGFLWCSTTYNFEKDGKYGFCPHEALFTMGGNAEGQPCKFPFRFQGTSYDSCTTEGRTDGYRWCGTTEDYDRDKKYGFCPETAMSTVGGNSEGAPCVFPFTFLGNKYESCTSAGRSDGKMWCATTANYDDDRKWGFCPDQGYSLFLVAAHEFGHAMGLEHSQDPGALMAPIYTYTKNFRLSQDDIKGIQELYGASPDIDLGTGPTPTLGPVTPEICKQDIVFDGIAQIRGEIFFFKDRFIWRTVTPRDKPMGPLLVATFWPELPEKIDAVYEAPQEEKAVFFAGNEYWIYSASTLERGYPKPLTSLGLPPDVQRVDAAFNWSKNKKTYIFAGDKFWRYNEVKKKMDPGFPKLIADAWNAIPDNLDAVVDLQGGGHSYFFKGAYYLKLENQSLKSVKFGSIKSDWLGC
The experiment in a line: MMP-2 colorimetric inhibition assay (Enzo kit BML-AK408). The procedure, abridged: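 Cleavage of the thiopeptide Ac-PLG-[2-mercapto-4-methylpentanoyl]-LG-OC2H5 releases a sulfhydryl that reacts with DTNB, read at 415 nm per the kit protocol. IC50 values (nM) come from inhibition curves of normalized data.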

Assay [4] deals with T3, MMP1 (Homo sapiens, UniProt P03956).
T3 sequence (P03956 100-269 limits assumed): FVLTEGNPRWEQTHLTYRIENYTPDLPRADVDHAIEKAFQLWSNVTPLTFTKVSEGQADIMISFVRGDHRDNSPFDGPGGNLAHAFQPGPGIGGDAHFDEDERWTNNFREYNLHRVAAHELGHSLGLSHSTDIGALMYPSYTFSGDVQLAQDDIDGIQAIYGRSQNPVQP
The experiment in a line: MMP-1 colorimetric inhibition assay (Enzo kit BML-AK404). A digest of the protocol: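 Colorimetric kit run per manufacturer protocol. MMP-1 cleaves a thiopeptide substrate (Ac-PLG-[2-mercapto-4-methylpentanoyl]-LG-OC2H5); released thiol reacts with DTNB, monitored at 415 nm. IC50 (nM) from inhibition curves of normalized values.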

Assay [5] addresses T4, MMP13 (Homo sapiens, UniProt P45452).
T4 construct: purchased Enzo Life Sciences, Inc. BML-AK412
In words: MMP-13 colorimetric inhibition assay (Enzo kit BML-AK412). The procedure, abridged:
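Thiopeptide chromogenic substrate (Ac-PLG-[2-mercapto-4-methylpentanoyl]-LG-OC2H5); MMP-13 hydrolysis of the thioester yields a thiol that reacts with DTNB, read at 415 nm. IC50 values (nM) derived from inhibition curves of normalized data.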

The target of assay [6] is ADAM17 (TACE) (Homo sapiens, UniProt P78536). The experiment in a line: TACE fluorometric inhibition assay (Enzo kit BML-AK310). The procedure, abridged: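 Kit-based TACE assay run per manufacturer's protocol, using quenched fluorogenic peptide Mca-PLAQAV-Dpa-RSSSR-NH2 whose cleavage raises Mca fluorescence. Signal read at ex/em 320/420 nm; IC50 (nM) derived from inhibition curves of normalized values.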
Chain of ADAM17 (TACE) (P78536 215-477 limits assumed): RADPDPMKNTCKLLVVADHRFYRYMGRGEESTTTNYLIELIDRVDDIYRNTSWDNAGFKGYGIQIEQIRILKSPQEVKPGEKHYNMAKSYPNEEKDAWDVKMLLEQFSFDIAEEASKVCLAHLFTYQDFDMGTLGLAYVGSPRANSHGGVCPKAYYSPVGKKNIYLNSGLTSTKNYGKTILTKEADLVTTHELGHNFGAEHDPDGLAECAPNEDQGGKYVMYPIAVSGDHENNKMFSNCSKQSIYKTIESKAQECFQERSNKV

The mark [7] stands for this setting: FRET peptide substrate, ex/em 495/520 nm, read-out: ADAM 10 IC50 class.
Where [8] appears, read: thiopeptide substrate, absorbance 415 nm, read-out: MMP 9 IC50 class.
Where [9] appears, read: thiopeptide substrate, absorbance 415 nm, read-out: MMP 2 IC50 class.
The mark [10] stands for this setting: thiopeptide substrate, absorbance 415 nm, read-out: MMP 1 IC50 class.
[11] abbreviates: thiopeptide substrate, absorbance 415 nm, read-out: MMP 13 IC50 class.
[12] abbreviates: quenched fluorogenic peptide, ex/em 320/420 nm, read-out: TACE IC50 class.

Like-named read-outs stand apart in the source and are kept apart here.

Consider `O=C(NO)[C@H]1[C@@H]2CC[C@H](CN1S(=O)(=O)c1ccc(Oc3ccc(OCC(F)(F)F)cc3)nc1)N2C(=O)N1CCOCC1` [Example 72, (1S,2R,5R)-N-hydroxy-8-(morpholine-4-carbonyl)-3-((6-(4-(2,2,2-trifluoroethoxy)-phenoxy)pyridin-3-yl)sulfonyl)-3,8-diazabicyclo[3.2.1]-octane-2-carboxamide], for which the IC50 in assay [1] was over 10000 nM; in assay [2], under 50 nM; in assay [3], under 50 nM; in assay [4], 1000 to 10000 nM; in assay [5] it was under 50 nM; in assay [6], over 10000 nM.

`COCCOC(=O)N1[C@@H]2CC[C@H]1[C@H](C(=O)NO)N(S(=O)(=O)c1ccc(Oc3ccc(OC)c(F)c3)nc1)C2` [Example 34, 2-methoxyethyl (1S,2R,5R)-3-((6-(3-fluoro-4-methoxy-phenoxy)pyridin-3-yl)sulfonyl)-2-(hydroxycarbamoyl)-3,8-diaza-bicyclo[3.2.1]octane-8-carboxylate]: the half-inhibitory concentration (IC50) in assay [1] (setting [7]) is 1000 to 10000 nM; in assay [2] (setting [8]), under 50 nM; in assay [3] (setting [9]), under 50 nM; in assay [4] (setting [10]) it was 1000 to 10000 nM; in assay [5] (setting [11]), under 50 nM; in assay [6] (setting [12]) it was 1000 to 10000 nM.

For the molecule `CC(C)C(=O)N1[C@@H]2CC[C@H]1[C@H](C(=O)NO)N(S(=O)(=O)c1ccc(Oc3ccc(OC(F)(F)F)cc3)nc1)C2` [Example 56, (1S,2R,5R)-N-hydroxy-8-isobutyry1-3-((6-(4-(trifluoro-methoxy)phenoxy)-pyridin-3-yl)-sulfonyl)-3,8-diazabicyclo-[3.2.1]octane-2-carboxamide], the concentration for half-maximal inhibition (IC50) in assay [1] (setting [7]) was over 10000 nM; in assay [2] (setting [8]), under 50 nM; in assay [3] (setting [9]), under 50 nM; in assay [4] (setting [10]), over 10000 nM; in assay [5] (setting [11]) it was under 50 nM; in assay [6] (setting [12]), 1000 to 10000 nM.

With `COCCOC(=O)N1[C@@H]2CC[C@H]1[C@H](C(=O)NO)N(S(=O)(=O)c1ccc(Oc3ccc(F)cc3)c(F)c1)C2` [Example 5, 2-methoxyethyl (1S,2R,5R)-3-((3-fluoro-4-(4-fluoro-phenoxy)phenyl)-sulfonyl)-2-(hydroxycarbamoyl)-3,8-diazabicyclo[3.2.1]-octane-8-carboxylate], the IC50 in assay [1] was 50 to 1000 nM; in assay [2] (setting [8]), under 50 nM; in assay [3] (setting [9]) it was under 50 nM; in assay [4] (setting [10]) it was 50 to 1000 nM; in assay [5] (setting [11]) it was under 50 nM; in assay [6] (setting [12]) it was 50 to 1000 nM.

On to `COCCOC(=O)N1[C@@H]2CC[C@H]1[C@H](C(=O)NO)N(S(=O)(=O)c1ccc(Oc3ccc(C)cc3)nc1)C2` [Example 32, 2-methoxyethyl (1S,2R,5R)-2-(hydroxycarbamoyl)-3-((6-(p-tolyloxy)-pyridin-3-yl)-sulfonyl)-3,8-diazabicyclo[3.2.1]-octane-8-carboxylate], for which the half-maximal inhibitory concentration (IC50) in assay [1] (setting [7]) was over 10000 nM; in assay [2] (setting [8]) it was under 50 nM; in assay [3] (setting [9]) it was under 50 nM; in assay [4] (setting [10]) it was 50 to 1000 nM; in assay [5] (setting [11]), under 50 nM; in assay [6] (setting [12]), 1000 to 10000 nM.

Take `CC(C)OC(=O)N1[C@@H]2CC[C@H]1[C@H](C(=O)NO)N(S(=O)(=O)c1ccc(Oc3ccc(F)cc3)nc1)C2` [Example 67, isopropyl (1S,2R,5R)-3-((6-(4-fluorophenoxy)-pyridin-3-yl)-sulfonyl)-2-(hydroxycarbamoyl)-3,8-diazabicyclo-[3.2.1]octane-8-carboxylate]: the concentration for half-maximal inhibition (IC50) in assay [1] (setting [7]) is over 10000 nM; in assay [2] (setting [8]) it was under 50 nM; in assay [3] (setting [9]), under 50 nM; in assay [4] (setting [10]), 50 to 1000 nM; in assay [5] (setting [11]) it was under 50 nM; in assay [6] (setting [12]), 1000 to 10000 nM.

`COCCOC(=O)N1[C@@H]2CC[C@H]1[C@H](C(=O)NO)N(S(=O)(=O)c1ccc(Oc3ccc(OC)nc3)nc1)C2` [Example 28, 2-methoxyethyl (1S,2R,5R)-2-(hydroxycarbamoyl)-3-((6-((6-methoxy-pyridin-3-yl)oxy)-pyridin-3-yl)-sulfonyl)-3,8-diaza-bicyclo[3.2.1]octane-8-carboxylate]: the IC50 was over 10000 nM in assay [1] (setting [7]); under 50 nM in assay [2] (setting [8]); under 50 nM in assay [3] (setting [9]); 50 to 1000 nM in assay [4] (setting [10]); under 50 nM in assay [5] (setting [11]); 1000 to 10000 nM in assay [6] (setting [12]).
